Measured values from patent US20030203975A1, “Anti-cancer agents” (priority 1998, published 2003).

Assays:
[1] = In vitro cytotoxicity against CHO cell lines (MTT assay); assay type: cell-based; conditions: Chinese hamster, MTT assay after 24 hours exposure
Procedure: Chinese Hamster Ovary (CHO) cell lines were grown as monolayers in Ham's F-10 nutrient mixture supplemented with 5% foetal calf serum and 5% heat-inactivated newborn calf serum. All experiments were performed on cells within 10 passages of each other, during which period phenotypes remained stable. All anthraquinone/amino acid conjugates were dissolved in water and not more than 0.01% DMSO. Activity was determined by an MTT assay after 24 hours exposure using essentially the method of Plumb et al (Plumb, J., Milroy, R and Kaye, S. B., 1989, Effects of the pH dependence of 3-([…])-2,5-diphenyl tetrazolium bromide formazan absorption on chemosensitivity, Cancer Research, 49: 4435-4440). Characteristics of the cell lines are described in full in Cummings et al 1996, Biochem.Pharmacol. 52: 979-990.

Topoisomerase I [2] = target: T1, Topoisomerase I (Homo sapiens, UniProt P11387); experiment: Topo I relaxation assay; assay type: biochemical; conditions: unit not given; compound at 1, 10, 25 and 50 μM in protocol
T1 sequence (P11387 1-765): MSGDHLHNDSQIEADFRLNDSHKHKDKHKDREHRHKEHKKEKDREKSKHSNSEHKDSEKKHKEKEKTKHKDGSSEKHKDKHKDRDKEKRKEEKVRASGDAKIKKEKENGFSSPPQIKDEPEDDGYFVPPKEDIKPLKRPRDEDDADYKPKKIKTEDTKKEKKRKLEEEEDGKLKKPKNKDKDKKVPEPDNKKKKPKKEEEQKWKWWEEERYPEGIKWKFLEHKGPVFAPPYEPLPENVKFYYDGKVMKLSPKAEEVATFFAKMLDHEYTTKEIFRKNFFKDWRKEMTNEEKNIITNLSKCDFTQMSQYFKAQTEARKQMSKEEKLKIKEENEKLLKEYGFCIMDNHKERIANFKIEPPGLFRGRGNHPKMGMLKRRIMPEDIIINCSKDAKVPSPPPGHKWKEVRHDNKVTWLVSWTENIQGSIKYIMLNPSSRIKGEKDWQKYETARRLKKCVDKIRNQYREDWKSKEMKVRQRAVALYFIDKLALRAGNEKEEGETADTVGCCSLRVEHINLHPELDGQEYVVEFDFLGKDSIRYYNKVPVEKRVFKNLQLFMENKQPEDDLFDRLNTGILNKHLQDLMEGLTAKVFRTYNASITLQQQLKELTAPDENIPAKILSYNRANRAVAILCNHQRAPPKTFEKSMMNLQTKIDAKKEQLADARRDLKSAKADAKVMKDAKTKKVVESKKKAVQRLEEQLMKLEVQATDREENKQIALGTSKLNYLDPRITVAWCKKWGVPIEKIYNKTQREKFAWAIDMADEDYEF
Excerpt: Topo I Relaxation Assay Protocol.

Topoisomerase I [3] = target: T1, Topoisomerase I; experiment: Topo I cleavage assay; assay type: biochemical; conditions: for TopI Cleave: unit not given, compound at 1, 10, 25 and 50 μM in protocol
Topoisomerase IIβ = Topoisomerase IIβ (Homo sapiens, UniProt Q02880); experiment: Topo II decatenation assay; assay type: biochemical; conditions: unit not given; kDNA substrate; compound at 1, 10, 25 and 50 μM in protocol
Chain of Topoisomerase IIβ (Q02880 whole entry): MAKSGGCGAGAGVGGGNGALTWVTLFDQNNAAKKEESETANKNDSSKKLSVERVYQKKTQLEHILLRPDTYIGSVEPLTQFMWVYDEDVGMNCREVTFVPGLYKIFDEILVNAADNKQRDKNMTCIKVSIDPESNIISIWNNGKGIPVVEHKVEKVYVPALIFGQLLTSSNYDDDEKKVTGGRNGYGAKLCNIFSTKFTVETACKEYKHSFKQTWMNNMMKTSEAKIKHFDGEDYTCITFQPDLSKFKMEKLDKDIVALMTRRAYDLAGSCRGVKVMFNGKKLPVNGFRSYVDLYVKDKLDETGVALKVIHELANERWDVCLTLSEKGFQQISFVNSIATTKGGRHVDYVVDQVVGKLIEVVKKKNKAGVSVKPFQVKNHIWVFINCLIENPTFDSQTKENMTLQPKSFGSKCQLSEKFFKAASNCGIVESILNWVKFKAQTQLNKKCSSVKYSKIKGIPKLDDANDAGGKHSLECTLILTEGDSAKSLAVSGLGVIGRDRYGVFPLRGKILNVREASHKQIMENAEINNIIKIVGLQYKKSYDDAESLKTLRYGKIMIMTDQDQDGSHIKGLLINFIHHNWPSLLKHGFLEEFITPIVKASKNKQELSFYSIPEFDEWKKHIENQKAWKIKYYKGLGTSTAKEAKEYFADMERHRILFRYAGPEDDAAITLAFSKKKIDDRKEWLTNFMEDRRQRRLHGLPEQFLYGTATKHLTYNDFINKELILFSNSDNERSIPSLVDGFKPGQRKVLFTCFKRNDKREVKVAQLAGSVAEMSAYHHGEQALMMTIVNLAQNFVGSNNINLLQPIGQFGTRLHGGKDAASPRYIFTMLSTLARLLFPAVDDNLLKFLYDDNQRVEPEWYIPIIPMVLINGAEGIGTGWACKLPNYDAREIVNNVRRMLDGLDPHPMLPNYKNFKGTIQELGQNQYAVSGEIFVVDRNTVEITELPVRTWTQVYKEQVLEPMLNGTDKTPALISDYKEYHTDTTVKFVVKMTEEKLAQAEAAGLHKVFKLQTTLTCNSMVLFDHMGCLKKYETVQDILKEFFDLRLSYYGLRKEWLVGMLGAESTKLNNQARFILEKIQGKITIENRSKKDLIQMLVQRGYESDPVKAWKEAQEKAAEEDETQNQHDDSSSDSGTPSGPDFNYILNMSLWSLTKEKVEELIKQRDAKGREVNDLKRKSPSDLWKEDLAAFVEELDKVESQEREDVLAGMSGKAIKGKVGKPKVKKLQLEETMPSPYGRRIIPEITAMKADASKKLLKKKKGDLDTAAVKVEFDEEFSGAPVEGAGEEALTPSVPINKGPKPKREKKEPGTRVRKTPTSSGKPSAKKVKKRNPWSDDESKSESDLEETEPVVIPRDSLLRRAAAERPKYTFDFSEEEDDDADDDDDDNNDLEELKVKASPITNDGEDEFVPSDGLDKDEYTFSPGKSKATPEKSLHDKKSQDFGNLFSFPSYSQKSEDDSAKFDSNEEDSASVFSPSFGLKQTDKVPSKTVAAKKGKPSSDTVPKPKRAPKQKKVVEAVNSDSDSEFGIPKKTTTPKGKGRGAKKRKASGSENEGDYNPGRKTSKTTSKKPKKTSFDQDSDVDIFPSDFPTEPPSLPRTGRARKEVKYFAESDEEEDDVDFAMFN
Procedure: Topisomerase Decatenation Assay.
This method uses catenated DNA substrate prepared from the kinetoplast of the insect trypanosome Crithidia fasciculata. Upon incubation with topo II, which engages DNA in a double stranded breakage-reunion cycle, DNA minicircles are released. Addition of topo-inhibiting drugs may prevent decatenation.
Topo II Decatenation Assay Protocol
This assay is the same as the Topo II Relaxation assay except that the pBR 322 Plasmid DNA is replaced with kDNA.
Results are included in Table 3 below

[4] = test system: DNA: Calf thymus sodium salt; experiment: DNA binding assay, ethidium bromide displacement; design: key: NB = Not binding; conditions: concentration required to displace 50% of the ethidium bromide; 20 μM DNA, 2 μM dye
Procedure: The propensity of selected compounds to bind to DNA in the absence of topos was measured in order to identify compounds that would bind weakly, or not at all. […] A […] was used determine binding constants of the compound to DNA by displacement of either ethidium bromide (an intercalator) or Hoechst dye 33258 (a groove binder) which form a DNA-bound fluorescent complex measured by fluorescence spectroscopy.
DNA Binding Assay Protocol
In order to detect the strength and mode of anthraquinone compound binding to DNA the displacement of known DNA binders was detected by measuring the fluorescence of a DNA/fluorescent compound complex. The addition of known concentrations of ethidium bromide, an interchelator, and Hoescht Dye, a groove binder, cause a fluorescent DNA/binder complex that can be detected and the fluorescence quantified. The addition of anthraquinone compounds displaces the interchelators or groove binders, depending on the compound mode of DNA binding, and therefore reduces the fluorescence accordingly. The preferred binding action of compounds can be quantified by determining the reduction in fluorescence resulting from a given concentration of compound. The quantification of a compounds ability to bind to DNA is expressed, as the concentration required to displace 50% of the ethidium bromide or Hoescht Dye, thus reducing the fluorescence by 50%. Therefore, the values produced are QE50 for ethidium, bromide, or QH50 for Hoescht Dye.
Compound: 300, 60, 10 and 10/6gM (1.66 μM) solution concentrations were prepared for use in the assay to produce a range of compound. Concentrations. 100, 200 and 300 μl of each dilution were used in the assay reaction. This provides a range of concentrations: −30, 20, 10, 6, 4, 2, 1, 0.67, 0.33, 0.17, 0.11, 0.06, 0.00 μM in the assay environment. Intermediate concentrations can be utilised to enhance the accuracy of the displacement concentration determination.
Buffer: 100 mM Tris, NaCI 500 mM. DNA: Calf thymus sodium salt. Stock solution of 200 μM was prepared in 10× assay buffer. Dilution of DNA therefore provided the correct concentration of assay buffer in the assay cell.300 μg DNA was used in 3 ml reaction mixture therefore 20 μM DNA concentration. Hoescht Dye 2 μM final concentration, therefore 100 μl of a 60 μM stock solution was added to a 3 ml assay. Ethidium Bromide 2 μM final concentration therefore 100 μl of a 60 μM stock solution was added to a 3 ml assay. Distilled H2O Water was added to produce 3 ml reaction volume. Order of addition: 1. DNA, 2. Water, 3. Drug, 4. Dye
The assay was completed with both Hoescht Dye and Ethidium. Bromide for each compound. The ethidium bromide is a DNA inter-chelator, Hoescht Dye is a minor groove binder. 100, 200 and […] of the lowest compound dilution was assayed. This procedure was repeated with all further dilution's. This provided a curve of fluorescence intensity decrease with increasing compound concentration. QE50 and QH50 values were determined by extrapolating the concentration of compound at the point where the fluorescence intensity was reduced by 50%. Controls involving compound only and ethidium. bromide or Hoechst Dye without compound were carried out for each experiment. Two readings for each concentration of compound were performed per experiment, each experiment was repeated at least three times. Fluorometer: Perkin Elmer Luminescence Spectrometer LS 50B.

SMILES	IC50 at 24 h ([1]; CHO-ADR-1 cells, ADR line)	IC50 at 24 h ([1]; CHO-ADR-r cells, ADR line)	IC50 at 24 h ([1]; CHO-K1 cells)	TopI Relax. (Topoisomerase I [2])	TopI Cleave (Topoisomerase I [3])	TopIIβ Decat. (Topoisomerase IIβ)	QE50 Intercalating [4]	nicked DNA (Topoisomerase I [3]; at 100 μM)
C[C@@H](N)C(=O)OCCCCNc1cccc2c1C(=O)c1ccccc1C2=O.O=C(O)C(F)(F)F [Example 45, 1-[4-(D-alanyloxy)butylamino]anthracene-9,10-dione trifluoroacetate]	46.3 µM	31.5 µM	40.5 µM	25	300	20	NB	
C[C@H](N)C(=O)OCCCCNc1cccc2c1C(=O)c1ccccc1C2=O.O=C(O)C(F)(F)F [Example 43, 1-[4-(L-alanyloxy)butylamino]anthracene-9,10-dione trifluoroacetate]	6.6 µM	25.2 µM	54 µM	25	100	25	NB	20%
